According to patent US4507487A, “Chemical compounds” (Bristol-Myers Company, priority 1983, dated 1985):
In brackets after ≈: the same amount, converted by molar mass. Where two headings read alike, the source gives them in different places.

How the values were obtained:
[1] = Mouse blood levels after single intramuscular injection; format: in vivo, mice; conditions: for concentration at 0.5 h: 30 minutes; for concentration at 1 h: 60 minutes
Description: The absorption of some of the preferred compounds were determined in mice following a single intramuscular injection of the test compound (dissolved in 0.1M phosphate buffer; pH 7) at a dosage of 10, 20 or 40 mg/kg. Blood samples were collected from the orbital sinuses into heparinized capillary tubes and assayed in Nutrient Agar (pH 6.6) using E. coli Ess-22-31 as the test organism. The blood levels at various time intervals, the half-life values (t1/2) and the areas under the curve (AUC) are shown in Table 3.

[2] = test system: M. morganii, Ent. cloacae and Ser. marcescens; assay: MIC, two-fold serial agar dilution in Mueller-Hinton agar, group (G-)-II; format: cell-based; conditions: (G-)-II, M. morganii (1), Ent. cloacae (2), Ser. marcescens (2 strains); read-out: Geometric Mean of MIC
Description: (§1) In the primary evaluation of the compounds of this invention, the Minimum Inhibitory Concentrations (MIC's) of the compounds were determined by the two-fold serial agar dilution method in Mueller-Hinton agar against 32 strains of test organisms in six groups.
(G-)II: M. morganii (1 strain), Ent. cloacae (2 strains) and Ser.

[3] = test system: Penicillinresistant S. aureus; assay: MIC, two-fold serial agar dilution in Mueller-Hinton agar, group (G+)-Ib; format: cell-based; conditions: Staphylococcus aureus, read-out: Geometric Mean of MIC
Description: as §1
(G+)Ib: Penicillinresistant S. aureus (5 strains)

S. aureus BX-1633-2 = assay: MIC against specific test organism; format: cell-based; conditions: Staphylococcus aureus, BX16332; S. aureus BX-1633-2, penicillin-resistant strain; read-out: Minimum Inhibitory Concentration
Description: as §1
(§2) The test method was as described for Table 1.

Ps. aeruginosa A20717 = assay: MIC against specific test organism; format: cell-based; conditions: Pseudomonas aeruginosa, read-out: Minimum Inhibitory Concentration
Description: as §1, §2

Ser. marcescens A20019 = assay: MIC against specific test organism; format: cell-based; conditions: Serratia marcescens, read-out: Minimum Inhibitory Concentration
Description: as §1, §2

E. coli A15164 = assay: MIC against specific test organism; format: cell-based; conditions: Escherichia coli; E. coli A15164, cephalothin-resistant strain; read-out: Minimum Inhibitory Concentration
Description: as §1, §2

K. pneumoniae D11 = assay: MIC against specific test organism; format: cell-based; conditions: Klebsiella pneumoniae, read-out: Minimum Inhibitory Concentration
Description: as §1, §2

Ps. aeruginosa A15150 = assay: MIC against specific test organism; format: cell-based; conditions: Pseudomonas aeruginosa, read-out: Minimum Inhibitory Concentration
Description: as §1, §2

M. morganii A9553 = assay: MIC against specific test organism; format: cell-based; conditions: Morganella morganii, read-out: Minimum Inhibitory Concentration
Description: as §1, §2

Ent. cloacae A9656 = assay: MIC against specific test organism; format: cell-based; conditions: Enterobacter cloacae, read-out: Minimum Inhibitory Concentration
Description: as §1, §2

E. coli Juhl = assay: MIC against specific test organism; format: cell-based; conditions: Escherichia coli, read-out: Minimum Inhibitory Concentration
Description: as §1, §2

Pr. mirabilis A9554 = assay: MIC against specific test organism; format: cell-based; conditions: Proteus mirabilis, read-out: Minimum Inhibitory Concentration
Description: as §1, §2

K. pneumoniae A9867 = assay: MIC against specific test organism; format: cell-based; conditions: Klebsiella pneumoniae; K. pneumoniae A9867, cephalothin-resistant strain; read-out: Minimum Inhibitory Concentration
Description: as §1, §2

S. aureus Smith = assay: MIC against specific test organism; format: cell-based; conditions: Staphylococcus aureus, read-out: Minimum Inhibitory Concentration
Description: as §1, §2

Ps. aeruginosa A9843 = assay: MIC against specific test organism; format: cell-based; conditions: Pseudomonas aeruginosa, read-out: Minimum Inhibitory Concentration
Description: as §1, §2

[4] = test system: Cephalothinsensitive E. coli, Kl. pneumoniae and Pr. mirabilis; assay: MIC, two-fold serial agar dilution in Mueller-Hinton agar, group (G-)-Ia; format: cell-based; conditions: (G-)-Ia, cephalothin-sensitive E. coli (2), Kl. pneumoniae (1), Pr. mirabilis (2 strains); read-out: Geometric Mean of MIC
Description: as §1
(G-)Ia: Cephalothinsensitive E. coli (2 strains), Kl. pneumoniae (1
strain) and Pr. mirabilis (2 strains)

Ps. aeruginosa = assay: MIC, two-fold serial agar dilution in Mueller-Hinton agar, group (G-)-III; format: cell-based; conditions: Pseudomonas aeruginosa, Ps. aeruginosa (6 strains), read-out: Geometric Mean of MIC
Description: as §1

[5] = test system: Cephalothinresistant E. coli and Kl. pneumoniae; assay: MIC, two-fold serial agar dilution in Mueller-Hinton agar, group (G-)-Ib; format: cell-based; conditions: read-out: Geometric Mean of MIC
Description: as §1
(G-)Ib: Cephalothinresistant E. coli (3 strains) and Kl. pneumoniae (3

[6] = test system: Penicillinsensitive S. aureus; assay: MIC, two-fold serial agar dilution in Mueller-Hinton agar, group (G+)-Ia; format: cell-based; conditions: Staphylococcus aureus; (G+)-Ia, penicillin-sensitive S. aureus (5 strains); read-out: Geometric Mean of MIC
Description: as §1

[7] = 10 mg/kg im, read-out: Mouse Blood Level
[8] = 20 mg/kg im, read-out: Mouse Blood Level
[9] = 40 mg/kg im, read-out: Mouse Blood Level

Molecule CSc1scc[n+]1CC1=C(C(=O)[O-])N2C(=O)C(NC(=O)/C(=N\OC3(C(=O)O)CCC3)c3csc(N)n3)[C@H]2SC1 (stereo partly drawn) [Example 2, 7-[(Z)-2-(2-Aminothiazol-4-yl)-2-(1-carboxycyclobut-1-oxyimino)acetamido]-3-(2-methylthiothiazolio)methyl-3-cephem-4-carboxylate] has an AUC ([1]; 10 mg/kg im) of 3600 ng·h/mL, a half-life ([1]; 10 mg/kg im) of 17 min and a concentration at 10 min [1, 7] of 8400 ng/mL. The concentration at 20 min [1, 7] was 5500 ng/mL, the concentration at 0.5 h [1, 7] was 3700 ng/mL and the concentration at 40 min [1, 7] was less than 1600 ng/mL. For the same molecule, the AUC ([1]; 20 mg/kg im) was 9000 ng·h/mL, the half-life ([1]; 20 mg/kg im) was 11 min and the concentration at 10 min [1, 8] was 22000 ng/mL. The concentration at 20 min [1, 8] was 15000 ng/mL, the concentration at 0.5 h [1, 8] was 8600 ng/mL and the concentration at 40 min [1, 8] was 5700 ng/mL. It also gave a concentration at 50 min [1, 8] of 2400 ng/mL, a concentration at 1 h [1, 8] of less than 1600 ng/mL and an AUC ([1]; 40 mg/kg im) of 16000 ng·h/mL. For the same molecule, the half-life ([1]; 40 mg/kg im) was 11 min, the concentration at 10 min [1, 9] was 43000 ng/mL and the concentration at 20 min [1, 9] was 27000 ng/mL. The concentration at 0.5 h [1, 9] was 14000 ng/mL, the concentration at 40 min [1, 9] was 7500 ng/mL and the concentration at 50 min [1, 9] was 3800 ng/mL. For the same molecule, the concentration at 1 h [1, 9] was 2300 ng/mL, the concentration at 1.5 h ([1]; 40 mg/kg im, 90 minutes, read-out: Mouse Blood Level) was less than 1600 ng/mL and the MIC [2] was 0.2 µg/mL (≈ 0.327 µM). The MIC [3] was 2.7 µg/mL (≈ 4.42 µM), the MIC (S. aureus BX-1633-2) was 3.1 µg/mL (≈ 5.08 µM) and the MIC (Ps. aeruginosa A20717) was 6.3 µg/mL (≈ 10.3 µM). The MIC (Ser. marcescens A20019) was 0.1 µg/mL (≈ 0.164 µM), the MIC (E. coli A15164) was 0.4 µg/mL (≈ 0.655 µM) and the MIC (K. pneumoniae D11) was 0.05 µg/mL (≈ 0.0819 µM). For the same molecule, the MIC (Ps. aeruginosa A15150) was 0.8 µg/mL (≈ 1.31 µM), the MIC (M. morganii A9553) was 0.2 µg/mL (≈ 0.327 µM) and the MIC (Ent. cloacae A9656) was 0.05 µg/mL (≈ 0.0819 µM). For the same molecule, the MIC (E. coli Juhl) was 0.1 µg/mL (≈ 0.164 µM), the MIC (Pr. mirabilis A9554) was 0.025 µg/mL (≈ 0.0409 µM) and the MIC (K. pneumoniae A9867) was 3.1 µg/mL (≈ 5.08 µM). It also gave an MIC (S. aureus Smith) of 1.6 µg/mL (≈ 2.62 µM), an MIC (Ps. aeruginosa A9843) of 1.6 µg/mL (≈ 2.62 µM) and an MIC [4] of 0.025 µg/mL (≈ 0.0409 µM). The MIC (Ps. aeruginosa) was 1.8 µg/mL (≈ 2.95 µM), the MIC [5] was 0.4 µg/mL (≈ 0.655 µM) and the MIC [6] was 0.92 µg/mL (≈ 1.51 µM).
